For 13 compounds, IC50 and Ki results are on record in patent US8927500B2, “Peptidomimetic macrocycles” (Aileron Therapeutics, Inc., priority 2012, dated 2015).

For assay [1], the target named is MDM2 (Homo sapiens, UniProt Q00987). Briefly: Competitive fluorescence polarization assay for MDM2. As to conditions: competitive FP assay, MDM2; for IC50: read-out: IC50 (MDM2); for Ki: read-out: Ki (MDM2). Type of assay: binding. In general terms: In fluorescence polarisation assays a small probe gives low polarisation when free and higher when bound to something large.

Assay [2] addresses T1, MDMX (Homo sapiens, UniProt O15151).
T1 sequence (O15151 1-125): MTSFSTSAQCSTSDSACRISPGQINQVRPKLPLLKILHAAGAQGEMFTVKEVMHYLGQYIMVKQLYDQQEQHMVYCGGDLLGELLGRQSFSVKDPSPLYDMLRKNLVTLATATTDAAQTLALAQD
Briefly: Competitive fluorescence polarization assay for MDMX. Type of assay: binding. As to conditions: competitive FP assay; for IC50: read-out: IC50 (MDMX); for Ki: read-out: Ki (MDMX).

For orientation: IC50 means the midpoint of a concentration-inhibition curve. By Ki is commonly meant the equilibrium dissociation constant of an inhibitor or competing ligand from its target.

Where a SMILES comes first, the peptide text is derived from it. Bridges are numbered along the chain shown (N, C = ends). [ ]: non-standard residue; d: D form. R8 = C=CCCCCCC[C@@](C)(N)C(=O)O; Cba = N[C@@H](CC1CCC1)C(=O)O; hLeu = CC(C)CC[C@H](N)C(=O)O; S5 = C=CCCC[C@](C)(N)C(=O)O; Nle = CCCC[C@H](N)C(=O)O

Sequence of MDM2 (Q00987 1-125): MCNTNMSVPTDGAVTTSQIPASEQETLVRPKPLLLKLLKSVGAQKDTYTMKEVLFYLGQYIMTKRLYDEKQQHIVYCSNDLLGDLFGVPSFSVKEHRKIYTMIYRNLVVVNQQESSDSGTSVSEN

Regarding `CCCC[C@H](NC(=O)[C@H](C)NC(=O)[C@H](C)NC(=O)[C@]1(C)CCCC=CCCCCCC[C@@](C)(NC(=O)[C@H](Cc2ccccc2)NC(=O)[C@H](C)NC(=O)[C@H](CC(C)C)NC(C)=O)C(=O)N[C@@H](CCC(=O)O)C(=O)N[C@@H](Cc2ccc(O)cc2)C(=O)N[C@@H](Cc2c[nH]c3ccccc23)C(=O)N[C@@H](C)C(=O)N[C@@H](CCC(N)=O)C(=O)N[C@@H](CC(C)C)C(=O)N1)C(=O)N[C@@H](C)C(N)=O` [compound 369] (Ac-LAF[R8]EYWAQL[S5]AA[Nle]A-NH2; staple 4-11), in assay [1], the IC50 lay in the range of 100 to 1000 nM and the inhibitory constant (Ki) lay in the range of 10 to 100 nM. Further, in assay [2], the half-inhibitory concentration (IC50) lay within 100 to 1000 nM and the Ki was 10 to 100 nM.
Regarding `CCCC[C@H](NC(=O)[C@H](C)NC(=O)[C@H](C)NC(=O)[C@]1(C)CCCC=CCCCCCC[C@@](C)(NC(=O)[C@H](Cc2ccccc2)NC(=O)[C@@H](NC(=O)[C@H](C)NC(C)=O)[C@@H](C)O)C(=O)N[C@@H](CCC(=O)O)C(=O)N[C@@H](Cc2ccc(O)cc2)C(=O)N[C@@H](Cc2c[nH]c3ccccc23)C(=O)N[C@@H](C)C(=O)N[C@@H](CCC(N)=O)C(=O)N[C@@H](CC(C)C)C(=O)N1)C(=O)N[C@@H](C)C(N)=O` [compound 370] (Ac-ATF[R8]EYWAQL[S5]AA[Nle]A-NH2; staple 4-11), in assay [1], the IC50 was in the range of 10 to 100 nM and the inhibition constant (Ki) is less than 10 nM. Also, in assay [2], the concentration for half-maximal inhibition (IC50) fell in the range of 10 to 100 nM and the inhibition constant Ki was in the range of 10 to 100 nM.
`CCCC[C@H](NC(=O)[C@H](C)NC(=O)[C@H](C)NC(=O)[C@]1(C)CCCC=CCCCCCC[C@@](C)(NC(=O)[C@H](Cc2ccccc2)NC(=O)[C@H](C)NC(=O)[C@H](C)NC(C)=O)C(=O)N[C@@H](CCC(=O)O)C(=O)N[C@@H](Cc2ccc(O)cc2)C(=O)N[C@@H](Cc2c[nH]c3ccccc23)C(=O)N[C@@H](C)C(=O)N[C@@H](CCC(N)=O)C(=O)N[C@@H](CC(C)C)C(=O)N1)C(=O)N[C@@H](C)C(N)=O` [compound 371] (Ac-AAF[R8]EYWAQL[S5]AA[Nle]A-NH2; staple 4-11): in assay [1], the IC50 was in the range of 100 to 1000 nM and the Ki lay within 10 to 100 nM. Further, in assay [2], the concentration for half-maximal inhibition (IC50) was in the range of 100 to 1000 nM and the inhibition constant (Ki) lay in the range of 10 to 100 nM.
As for `CCCC[C@H](NC(=O)[C@H](C)NC(=O)[C@H](C)NC(=O)[C@]1(C)CCCC=CCCCCCC[C@@](C)(NC(=O)[C@H](Cc2ccccc2)NC(=O)[C@H](C)NC(=O)[C@H](C)NC(=O)[C@H](C)NC(C)=O)C(=O)N[C@@H](CCC(=O)O)C(=O)N[C@@H](Cc2ccc(O)cc2)C(=O)N[C@@H](Cc2c[nH]c3ccccc23)C(=O)N[C@@H](C)C(=O)N[C@@H](CCC(N)=O)C(=O)N[C@@H](CC(C)C)C(=O)N1)C(=O)N[C@@H](C)C(N)=O` [compound 372] (Ac-AAAF[R8]EYWAQL[S5]AA[Nle]A-NH2; staple 5-12), in assay [1], the 50% inhibitory concentration (IC50) was 100 to 1000 nM and the Ki is 10 to 100 nM. Moreover, in assay [2], the IC50 lay within 100 to 1000 nM and the inhibition constant Ki lay within 10 to 100 nM.
`CCCC[C@H](NC(=O)[C@H](C)NC(=O)[C@H](C)NC(=O)[C@]1(C)CCCC=CCCCCCC[C@@](C)(NC(=O)[C@H](Cc2ccccc2)NC(=O)[C@H](C)NC(=O)[C@H](C)NC(=O)[C@H](C)NC(=O)[C@H](C)NC(C)=O)C(=O)N[C@@H](CCC(=O)O)C(=O)N[C@@H](Cc2ccc(O)cc2)C(=O)N[C@@H](Cc2c[nH]c3ccccc23)C(=O)N[C@@H](C)C(=O)N[C@@H](CCC(N)=O)C(=O)N[C@@H](CC(C)C)C(=O)N1)C(=O)N[C@@H](C)C(N)=O` [compound 373] (Ac-AAAAF[R8]EYWAQL[S5]AA[Nle]A-NH2; staple 6-13): in assay [1], the IC50 lay within 10 to 100 nM and the inhibitory constant (Ki) is 10 to 100 nM. Further, in assay [2], the half-maximal inhibitory concentration (IC50) is 10 to 100 nM and the inhibition constant (Ki) was 10 to 100 nM.
As for `CCCC[C@H](NC(=O)[C@H](C)NC(=O)[C@H](C)NC(=O)[C@]1(C)CCCC=CCCCCCC[C@@](C)(NC(=O)[C@H](Cc2ccccc2)NC(=O)[C@@H](NC(=O)[C@H](C)NC(=O)[C@H](C)NC(C)=O)[C@@H](C)O)C(=O)N[C@@H](CCC(=O)O)C(=O)N[C@@H](Cc2ccc(O)cc2)C(=O)N[C@@H](Cc2c[nH]c3ccccc23)C(=O)N[C@@H](C)C(=O)N[C@@H](CCC(N)=O)C(=O)N[C@@H](CC(C)C)C(=O)N1)C(=O)N[C@@H](C)C(N)=O` [compound 374] (Ac-AATF[R8]EYWAQL[S5]AA[Nle]A-NH2; staple 5-12), in assay [1], the IC50 was 10 to 100 nM and the Ki is less than 10 nM. Also, in assay [2], the IC50 was 10 to 100 nM and the inhibition constant (Ki) was less than 10 nM.
Regarding `CCCC[C@H](NC(=O)[C@H](C)NC(=O)[C@H](C)NC(=O)[C@]1(C)CCCC=CCCCCCC[C@@](C)(NC(=O)[C@H](Cc2ccccc2)NC(=O)[C@@H](NC(=O)[C@H](CC(C)C)NC(=O)[C@H](C)NC(=O)[C@H](C)NC(C)=O)[C@@H](C)O)C(=O)N[C@@H](CCC(=O)O)C(=O)N[C@@H](Cc2ccc(O)cc2)C(=O)N[C@@H](Cc2c[nH]c3ccccc23)C(=O)N[C@@H](C)C(=O)N[C@@H](CCC(N)=O)C(=O)N[C@@H](CC(C)C)C(=O)N1)C(=O)N[C@@H](C)C(N)=O` [compound 375] (Ac-AALTF[R8]EYWAQL[S5]AA[Nle]A-NH2; staple 6-13), in assay [1], the IC50 was in the range of 10 to 100 nM and the Ki is less than 10 nM. In addition, in assay [2], the half-inhibitory concentration (IC50) is 10 to 100 nM and the Ki was less than 10 nM.
In the case of `CCCC[C@H](NC(=O)[C@H](C)NC(=O)[C@H](C)NC(=O)[C@]1(C)CCCC=CCCCCCC[C@@](C)(NC(=O)[C@H](Cc2ccccc2)NC(=O)[C@@H](NC(=O)[C@H](CC(C)C)NC(=O)[C@H](C)NC(=O)[C@H](C)NC(=O)[C@H](C)NC(C)=O)[C@@H](C)O)C(=O)N[C@@H](CCC(=O)O)C(=O)N[C@@H](Cc2ccc(O)cc2)C(=O)N[C@@H](Cc2c[nH]c3ccccc23)C(=O)N[C@@H](C)C(=O)N[C@@H](CCC(N)=O)C(=O)N[C@@H](CC(C)C)C(=O)N1)C(=O)N[C@@H](C)C(N)=O` [compound 376] (Ac-AAALTF[R8]EYWAQL[S5]AA[Nle]A-NH2; staple 7-14), in assay [1], the half-maximal inhibitory concentration (IC50) lay within 10 to 100 nM and the Ki was less than 10 nM. For the same compound, in assay [2], the half-maximal inhibitory concentration (IC50) lay within 10 to 100 nM and the Ki is less than 10 nM.
For the compound `CCCC[C@H](NC(=O)[C@H](C)NC(=O)[C@H](C)NC(=O)[C@]1(C)CCCC=CCCCCCC[C@@](C)(NC(=O)[C@H](Cc2ccccc2)NC(=O)[C@@H](NC(=O)[C@H](CC(C)C)NC(C)=O)[C@@H](C)O)C(=O)N[C@@H](CCC(=O)O)C(=O)N[C@@H](Cc2ccc(O)cc2)C(=O)N[C@@H](Cc2c[nH]c3ccccc23)C(=O)N[C@@H](C)C(=O)N[C@@H](CCC(N)=O)C(=O)N[C@@H](CC(C)C)C(=O)N1)C(=O)N[C@@H](C)C(=O)N[C@@H](C)C(N)=O` [compound 377] (Ac-LTF[R8]EYWAQL[S5]AA[Nle]AA-NH2; staple 4-11), in assay [1], the concentration for half-maximal inhibition (IC50) is 10 to 100 nM and the Ki is less than 10 nM. Moreover, in assay [2], the 50% inhibitory concentration (IC50) fell in the range of 10 to 100 nM and the inhibition constant (Ki) lay within 10 to 100 nM.
For the compound `CCCC[C@H](NC(=O)[C@H](C)NC(=O)[C@H](C)NC(=O)[C@]1(C)CCCC=CCCCCCC[C@@](C)(NC(=O)[C@H](Cc2ccccc2)NC(=O)[C@@H](NC(=O)[C@H](CC(C)C)NC(=O)[C@H](C)NC(C)=O)[C@@H](C)O)C(=O)N[C@@H](CCC(=O)O)C(=O)N[C@@H](Cc2ccc(O)cc2)C(=O)N[C@@H](Cc2c[nH]c3ccccc23)C(=O)N[C@@H](C)C(=O)N[C@@H](CCC(N)=O)C(=O)N[C@@H](CC(C)C)C(=O)N1)C(=O)N[C@@H](C)C(=O)N[C@@H](C)C(N)=O` [compound 378] (Ac-ALTF[R8]EYWAQL[S5]AA[Nle]AA-NH2; staple 5-12), in assay [1], the IC50 lay within 10 to 100 nM and the Ki is less than 10 nM. Besides, in assay [2], the IC50 is 10 to 100 nM and the Ki fell in the range of 10 to 100 nM.
Consider `CCCC[C@H](NC(=O)[C@H](C)NC(=O)[C@H](C)NC(=O)[C@]1(C)CCCC=CCCCCCC[C@@](C)(NC(=O)[C@H](Cc2ccccc2)NC(=O)[C@@H](NC(=O)[C@H](CC(C)C)NC(=O)[C@H](C)NC(=O)[C@H](C)NC(C)=O)[C@@H](C)O)C(=O)N[C@@H](CCC(=O)O)C(=O)N[C@@H](Cc2ccc(O)cc2)C(=O)N[C@@H](Cc2c[nH]c3ccccc23)C(=O)N[C@@H](C)C(=O)N[C@@H](CCC(N)=O)C(=O)N[C@@H](CC(C)C)C(=O)N1)C(=O)N[C@@H](C)C(=O)N[C@@H](C)C(N)=O` [compound 379] (Ac-AALTF[R8]EYWAQL[S5]AA[Nle]AA-NH2; staple 6-13), for which, in assay [1], the IC50 lay in the range of 10 to 100 nM and the inhibitory constant (Ki) is less than 10 nM. Besides, in assay [2], the concentration for half-maximal inhibition (IC50) was 10 to 100 nM and the inhibitory constant (Ki) lay within 10 to 100 nM.
Consider `CCCC[C@H](NC(=O)[C@H](C)NC(=O)[C@H](C)NC(=O)[C@]1(C)CCCC=CCCCCCC[C@@](C)(NC(=O)[C@H](Cc2ccccc2)NC(=O)[C@@H](NC(=O)[C@H](CC(C)C)NC(C)=O)[C@@H](C)O)C(=O)N[C@@H](CCC(=O)O)C(=O)N[C@@H](Cc2ccc(O)cc2)C(=O)N[C@@H](Cc2c[nH]c3ccccc23)C(=O)N[C@@H](C)C(=O)N[C@@H](CCC(N)=O)C(=O)N[C@@H](CC2CCC2)C(=O)N1)C(=O)N[C@@H](C)C(=O)N[C@@H](C)C(N)=O` [compound 380] (Ac-LTF[R8]EYWAQ[Cba][S5]AA[Nle]AA-NH2; staple 4-11), for which, in assay [1], the IC50 fell in the range of 10 to 100 nM and the inhibition constant Ki was less than 10 nM. In addition, in assay [2], the IC50 lay in the range of 10 to 100 nM and the Ki lay within 10 to 100 nM.
For `CCCC[C@H](NC(=O)[C@H](C)NC(=O)[C@H](C)NC(=O)[C@]1(C)CCCC=CCCCCCC[C@@](C)(NC(=O)[C@H](Cc2ccccc2)NC(=O)[C@@H](NC(=O)[C@H](CC(C)C)NC(C)=O)[C@@H](C)O)C(=O)N[C@@H](CCC(=O)O)C(=O)N[C@@H](Cc2ccc(O)cc2)C(=O)N[C@@H](Cc2c[nH]c3ccccc23)C(=O)N[C@@H](C)C(=O)N[C@@H](CCC(N)=O)C(=O)N[C@@H](CCC(C)C)C(=O)N1)C(=O)N[C@@H](C)C(=O)N[C@@H](C)C(N)=O` [compound 381] (Ac-LTF[R8]EYWAQ[hLeu][S5]AA[Nle]AA-NH2; staple 4-11), the IC50 in assay [1] and in assay [2] was 10 to 100 nM each time. The Ki is less than 10 nM in assay [1] and 10 to 100 nM in assay [2].
